In patent US10028992B2, “Methods of treating muscular dystrophy” (BOARD OF REGENTS OF THE NEVADA SYSTEM OF HIGHER EDUCATION …, priority 2012, dated 2018):
Read-outs that look alike come from different tables or passages of the source.

Test system: α7 integrin promoter
Assay: muscle cell-based assay: α7βgal+/− myoblasts/myotubes, LacZ reporter, β-galactosidase cleavage of FDG
Design: species or system mouse
Settings: for EC50: Mus musculus, read-out: Fit LogAC50 (converted)
Method: An α7 integrin null mouse was produced in which exon 1 of the gene encoding the α7 integrin was replaced by the LacZ reporter. In these mice, all the transcriptional regulatory elements of the α7 integrin promoter were retained, allowing β-galactosidase to report expression of 7 integrin. A primary myoblast cell line (designated α7βgal^+/−) isolated from 10 day old α7^+/− pups were analyzed for the ability of β-galactosidase to report α7 integrin expression. α7βgal^+/− myoblasts were differentiated and subjected to X-gal staining and western analysis (FIGS. 1A and 1B).
The activity of the α7 integrin promoter was measured by β-galactosidase cleavage of the non-fluorescent compound fluorescein di-β-D-galactopyranoside (FDG) to fluorescein. This assay was used to screen compound libraries to identify molecules that up-regulate α7 integrin expression in muscle.
Also evaluated was the effect of various isoforms of laminin and the ligand for α7β1 integrin on integrin expression. Positive hits were subjected to dose-response analysis, western analysis and a myostatin counterscreen (a negative regulator of muscle growth).

[1] = given as log AC50 (negative values)
[2] = curve class number, key not given
[3] = curve fit, activity at zero concentration

Structure (SMILES)	EC50 [1] [µM]	Score (Table 12 compound data)	Fit Curve Class [2]	Fit HillSlope (curve fit)	Fit Zero Activity [%] [3] [%]	Fit Infinite Activity [%] (curve fit, activity at infinite concentration)	Fit LogAC50 [1]	Fit Curve Class	Fit HillSlope	Fit Zero Activity [%]	Score	EC50 [µM]
CN(C)CCNc1ncnc2sc(-c3ccccc3)cc12 [Compound 163]	10	42	2.2	4.045	−0.8551							
CCCN1C2CCCC1CC(NC(=O)c1cccc([N+](=O)[O-])c1)C2 (stereo not drawn) [Compound 164]		42	2.1	4.5045	0.8371	91.825	−5					
O=C(NCCc1ccc(F)cc1)N[C@@H](Cc1ccccc1)C(=O)O [Compound 165]	11.2	42	2.1	4.5045	−20.12							
Cl.O=C(CN1CCOCC1)NCc1cc([N+](=O)[O-])ccc1O [Compound 166]	12.6	42	2.1	1.3987	10.3691							
COc1cc(Cl)cc(CN2CCC(CCC(=O)NC3CC3)CC2)c1OC [Compound 167]	7.08	42	2.1	1.7885	−38.2233							
COc1ccccc1C(=O)NCCOc1ccc(C(C)(C)C)cc1 [Compound 168]	8.91	42	2.2	1.9673	−0.7805							
COc1nccc(NCc2ccccc2)c1C#N [Compound 169]	10	42	2.1	4.4495	−19.7104							
Cc1ccc(-c2csnn2)cc1 [Compound 170]	10	42	2.1	4.4495	3.4732							
Cc1nc2c(cnn2-c2ccccc2)c(=O)n1/N=C/c1ccccc1 [Compound 171]	10	42	2.2	3.132	9.9159							
CN(C)/C(S)=N/c1cccc(C(F)(F)F)c1 [Compound 172]	10	42	2.2	2.3332	8							
CC(C)(C)N/C=C(\C#N)S(=O)(=O)c1ccc(Br)cc1 [Compound 173]	11.2	42	2.2	0.9	7.5952							
O=C(O)CCCNC(=O)CCn1nnc2ccccc2c1=O [Compound 174]	11.2	42	2.1	1.8579	−20.386							
CCNC(=O)COC(=O)c1cc(-c2ccco2)nc2ccccc12 [Compound 175]	5.62	42	2.1	1.3443	−62.687							
COc1cccc(N2C(=O)CC(N3CCc4ccccc4C3)C2=O)c1 (stereo not drawn) [Compound 176]	10	42	2.1	4.9549	−19.4361							
COC(=O)C1=NNC2(C)C(=O)N(c3ccc(C)cc3)C(=O)C12 (stereo not drawn) [Compound 177]	10	42	2.2	4.9549	0.9153							
CCCOc1nc(SCCC)nc2c1cnn2-c1ccccc1 [Compound 178]	11.2	42	2.1	1.1341	−22.6542							

Structure (SMILES)	EC50 [1] [µM]	Score (Table 12 compound data)	Fit Curve Class [2]	Fit HillSlope (curve fit)	Fit Zero Activity [%] [3] [%]	Fit Infinite Activity [%] (curve fit, activity at infinite concentration)	Fit LogAC50 [1]	Fit Curve Class	Fit HillSlope	Fit Zero Activity [%]	Score	EC50 [µM]
COc1ccc(O)c(/C=N/NC(=O)c2cc(O)nc3ccccc23)c1 [Compound 179]	5.62	42	2.1	2.2526	−35.6913							
CCOc1ccc(NC(=O)CN2C(=O)NC(CCSC)C2=O)cc1 (stereo not drawn) [Compound 180]	10	42	2.2	3.1925	−1.6238							
Br.COc1ccc(C(=O)CN2CCCCC2)cc1 [Compound 181]								2.1	4.9549	12.5	42	12.6
CNP(=O)(Oc1ccccc1)OC12CC3CC(CC(C3)C1)C2 (stereo not drawn) [Compound 182]								2.1	2.2481	−0.8571	42	10
O=C(CCc1ccccc1)c1nnc(-c2ccccc2)o1 [Compound 183]	10	42	2.1	4.4495	1.0471							
COc1ccc(CNC(=O)COC(=O)CCc2c[nH]c3ccccc23)cc1 [Compound 184]	10	42	2.1	2.9023	−0.6011							
COc1ccccc1OCC(=O)N/N=C1/C=C(C)CC1 [Compound 185]	10	42	2.1	4.9549	−23.4705							
CC(C(=O)Nc1ccc(C#N)cc1)N(C)CC(=O)Nc1cccc(F)c1 (stereo not drawn) [Compound 186]	3.98	42	2.1	0.9	−45.5302							
COC(=O)C1SCC2C(=O)N(Cc3ccc(F)cc3)CC(=O)N21 (stereo not drawn) [Compound 187]	8.91	42	2.1	1.3437	−54.3669							
COc1ccc(-c2cc(COc3ccccc3)on2)cc1 [Compound 188]	10	42	2.1	4.5045	0.195							
Sc1nnc(Cn2cnc3ccccc32)n1-c1ccccc1 [Compound 189]	8.91	42	2.2	0.8	8.5392							
CN(C#N)c1nccc(-c2cccs2)n1 [Compound 190]	11.2	42	2.1	2.0937	−28.9068							
O=Cc1cnc(N2CCCCC2)s1 [Compound 191]	11.2	42	2.1	4.9549	−19.3188							
Nc1nccc(-c2ccc(-n3cnc4ccccc43)cc2)n1 [Compound 192]	11.2	42	2.2	4.095	2.4789							
COc1cc2c(cc1OC)C(NC(=O)C(F)(F)F)C/C2=N\O (stereo not drawn) [Compound 193]	11.2	42	2.1	4.095	2.547							
